Experimental data reported in patent publication US20210299064A1, “METHOD OF TREATING PATIENTS WITH LENNOX-GASTAUT SYNDROME” (ZOGENIX INTERNATIONAL LIMITED, priority 2020, published 2021).
Structures can show the parent of a compound that is named as a salt. Where two headings read alike, the source gives them in different places.

How the values were obtained:
[1] = system: children and adults with Lennox-Gastaut syndrome (LGS); experiment: Randomized, double-blind, placebo-controlled trial of adjunctive fenfluramine oral solution: seizure frequency from caregiver diary; format: in vivo, human; conditions: for median reduction in monthly drop seizures: 2 week titration plus 12 week maintenance, placebo 7.8% (7.6% elsewhere in the source); for proportion of subjects with a 25% or more reduction in monthly drop seizures: titration plus maintenance (week 0-14), placebo 31%, p 0.007; for reduction from baseline of generalized tonic-clonic (GTC) seizures: placebo negative 3.7%, p less than 0.001; for reduction from baseline of tonic-atonic seizures: placebo 6.8%, p 0.0455
Description: A randomized, double-blind, placebo-controlled trial was conducted to assess the effect of administering fenfluramine hydrochloride as an adjunctive therapy as an oral solution to children and adults with Lennox-Gastaut syndrome (LGS). The study assessed the effect of such administration on seizures experienced by the subjects.
The fenfluramine hydrochloride was supplied as an oral solution in concentrations of 1.25, 2.5, and 5 mg/mL. Subjects were randomized to receive 1 of 2 doses of fenfluramine hydrochloride (0.2 mg/kg/day, 0.8 mg/kg/day; maximum dose: 30 mg/day) or placebo. Study medication were administered twice a day (BID) in equally divided doses. (Note that subjects taking concomitant stiripentol [STP] were randomized to 0.5 mg/kg/day, maximum dose 20 mg/day, or equivalent volume of placebo. Subjects randomized to 0.5 mg/kg/day were included in analyses with the subjects randomized to 0.8 mg/kg/day not taking STP.)
Seizures that result in a drop are defined as seizures involving the entire body, trunk, or head that led to a fall, injury, slumping in a chair, or the subject's head hitting a surface or that could have led to a fall or injury, depending on the patient's position at the time of the seizure.
The cohort included 263 randomized subjects from the United States, Canada, Europe, and Australia. 87 were randomized into 0.7 mg/kg/day of fenfluramine hydrochloride, 89 were randomized into 0.2 mg/kg/day of fenfluramine hydrochloride, and 87 were randomized into a placebo.
The administration was conducted for 20 weeks. There was a 4-week baseline, a 2-week titration, a 12-week maintenance, and a 2-week taper or transition period.
The 4-week Baseline Period consisted of the establishment of initial eligibility during a screening visit to include an assessment of cardiac parameters (ECG and ECHO), followed by an observation period where subjects were assessed for baseline seizure frequency based on recordings of daily seizure activity entered into a diary. Upon completion of the Baseline Period, subjects who qualified for the study were randomized (1:1:1) in a double-blind manner to receive 1 of 2 doses of fenfluramine hydrochloride (0.2 mg/kg/day, […]; maximum dose: 30 mg/day [or 0.5 mg/kg/day, maximum 20 mg/day, for subjects taking concomitant STP]) or placebo. Randomization was stratified by weight (<37.5 kilograms [kg], ≥37.5 kg) to ensure balance across treatment arms, and at least 25% of subjects will be in each weight group. All subjects were titrated to their blinded randomized dose over a 2-week Titration Period. Following titration, subjects continued treatment at their randomly assigned dose over a 12-week Maintenance Period. Total treatment time from the beginning of the Titration Period through the end of the Maintenance Period is 14 weeks. Subjects had ECG and ECHO assessments at weeks 6 and 14 during the Maintenance Period. At the end of the Maintenance Period (or early discontinuation), all subjects underwent a blinded 2-week taper or transition period (Post-Dosing Follow-Up) depending on whether they exit the study or are enrolled in Part 2, the long-term open-label extension, respectively.
(§1) Change in seizure frequency was assessed as the drops between baseline and the combined Titration and Maintenance Periods (T+M). Also assessed was the proportion of subjects who achieve a ≥50% reduction from baseline in the frequency of seizures that result in drops. Also assessed was changes in the Clinical Global Impression—Improvement rating, as assessed by the Principal Investigator.
Primary Efficacy Analysis: The primary efficacy endpoint for Part 1 is the percent change in frequency of seizures that result in drops (DSF: drop seizure frequency) per 28 days between the T+M and Baseline periods in Cohort A. The DSF will be calculated from all available data collected during the Baseline and treatment periods without imputation. […]

[2] = system: children and adults with Lennox-Gastaut syndrome (LGS); experiment: Same trial: Clinical Global Impression-Improvement (CGI-I) rating by the Principal Investigator; format: in vivo, human; conditions: 0.7 mg/kg/day; placebo 6.3%; p 0.0007
From the text: The diagnosing can also involve a clinician's impression of symptoms. As used herein, the term “clinician” includes not only medical and psychological professions such as physicians, psychologists, psychiatrists, and nurses, but also non-professionals who observe the patient, such as a family member who resides with the patient. In some cases, the clinician is a medical or psychological professional. […] Instead, the “impression of symptoms” includes, for example, the clinician's subjective assessment of whether the overall condition of the patient has improved, worsened, or remained constant. In some cases the clinician's impression of symptoms is collected using a Clinical Global Impression (CGI) rating scale, which can include the section about severity of illness (CGI-S), global improvement (CGI-I), and efficacy index (CGI-E). […] By comparing the numerical responses over time, an assessment of the effect of the administering can be determined.
as §1, with “Investigator. […]” for “Investigator.”

[3] = system: children and adults with Lennox-Gastaut syndrome (LGS); experiment: Same trial: safety (adverse events, ECG, ECHO); format: in vivo, human
[4] = system: self-induced photosensitive seizures; conditions: four cases; cited from earlier work
[5] = system: child suffering pattern sensitivity-induced seizures; conditions: one child, resistant to anticonvulsive treatment; cited from earlier work
[6] = system: children with refractory epilepsy; conditions: 0.5 to 1 mg/kg/day; cited from earlier work
LGS patients = conditions: cited from earlier work; for reduction in seizures associated with drops: 20 mg/kg/day
[7] = 0.7 mg/kg/day, listed as Fenfluramine

CCNC(C)Cc1cccc(C(F)(F)F)c1 (stereo not shown) [fenfluramine HCl, fenfluramine hydrochloride]
median reduction in monthly drop seizures ([1]; 0.2 mg/kg/day, p 0.0915): 13.2%
median reduction in monthly drop seizures ([1]; 0.7 mg/kg/day, p 0.0012): 26.5%
proportion of subjects with a 25% or more reduction in monthly drop seizures ([1]; 0.7 mg/kg/day): 51.7%
proportion of patients much or very much improved, CGI-I Investigator Rating [2]: 26.3%

CCNC(C)Cc1cccc(C(F)(F)F)c1 (racemic) [fenfluramine, (RS)—N-ethyl-1-[3-(trifluoromethyl)phenyl]propan-2-amine]
median reduction in monthly drop seizures ([1]; 0.2 mg/kg/day, p 0.0915): 14.2%
reduction from baseline of generalized tonic-clonic (GTC) seizures ([1]; 0.2 mg/kg/day): 58.2%
reduction from baseline of generalized tonic-clonic (GTC) seizures ([1]; 0.2 mg/kg/day, listed as Fenfluramine): 58%
median reduction in monthly drop seizures ([1]; 0.7 mg/kg/day, p 0.0012): 26.5%
Hodges-Lehmann EMD (estimated median difference) from placebo in frequency of seizures associated with a drop ([1]; 0.7 mg/kg/day, p 0.0013): 19.9%
reduction from baseline of tonic-atonic seizures ([1]; 0.7 mg/kg/day): 46.7%
reduction from baseline of tonic-atonic seizures [1, 7]: 47%
reduction from baseline of tonic seizures ([1]; 0.7 mg/kg/day, placebo 13.3%, p 0.0601): 31.3%
reduction from baseline of generalized tonic-clonic (GTC) seizures ([1]; 0.7 mg/kg/day): 45.7%
reduction from baseline of generalized tonic-clonic (GTC) seizures [1, 7]: 46%
proportion of subjects with a 25% or more reduction in monthly drop seizures ([1]; 0.7 mg/kg/day): 51.7%
proportion of patients much or very much improved, CGI-I Investigator Rating [2]: 26.3%
subjects with at least one serious treatment emergent adverse event (SAE) ([3]; 0.7 mg/kg/day, placebo 4.6%): 11.7%
tolerability ([3]; both doses, 14 weeks of treatment): generally well tolerated
cases of valvular heart disease or pulmonary arterial hypertension ([3]; both doses, ECHO monitoring): No cases of valvular heart disease or pulmonary arterial hypertension were observed
response of self-induced photosensitive seizures [4]: responded to treatment
effect on self-induced pattern sensitivity-induced seizures [5]: successfully terminated these self-induced seizures
effect on number of seizures [6]: reduction in the number of seizures

C=C(C)[C@@H]1CCC(C)=C[C@H]1c1c(O)cc(CCCCC)cc1O [cannabidiol]
reduction in seizures associated with drops (LGS patients; Devinksy 2018, p 0.005): 21.6%
reduction in seizures associated with drops (LGS patients; Thiele 2018, p 0.0135): 17.2%

O=C(c1cccnc1-c1ccncc1)N1CCC(O)(Cc2ccccc2)CC1 [Soticlestat]
reduction in drop seizures (LGS patients; Takeda Pharmaceuticals 2020, not statistically significant): 14.8%
